Measurements published in patent publication US20130209515A1, “ANTI-INFECTIVE AND IMMUNOMODULATORY COMPOUNDS” (priority 2005, published 2013).
Values after ≈ are worked out from the molar mass of the structure shown. “Also recorded” adds a separate entry of the source.

Columns and labels:
[1] = system: 4-hydroxy-2-alkylquinoline (HAQ) production; format: cell-based, Pseudomonas aeruginosa
[2] = system: P. aeruginosa; assay: P. aeruginosa growth kinetics (spectrophotometric analysis at 600 nm); format: cell-based, Pseudomonas aeruginosa; settings: for bacterial growth (PA14): FIG. 23B
Text: P. aeruginosa strains include wild-type (PA14, see Rahme et al., Science 268:1899-1902, 1995); a PA14 mvfR mutant (Cao et al., Proc. Natl. Acad. Sci. USA 98:14613-14618, 2001); a pqsE deletion mutant, generated via pEX18Ap allelic replacement by using sucrose selection (Hoang et al., Gene 212:77-86, 1998), resulting in a 570-bp nonpolar deletion covering 65% of the sequence (Déziel et al. PNAS); and the pqsA (U479) TnphoA mutant obtained from the PA14 Transposon Insertion Mutant Database. Bacteria were grown in LB broth or on 1.5% Bacto-agar (Difco) LB plates. Freshly plated cells served as inoculum.
P. aeruginosa was grown in the presence of 2 mM of 2′-aminoacetophenone (2AA), 3′-aminoacetophenone (3AA), 4′-aminoacetophenone (4AA), or 2′-nitroacetophenone (2NA), or in the absence of any of these compounds (control). Bacterial growth was followed over 26 hours by spectrophotometric analysis at 600 nm.
Bacterial growth was also followed over 35 hours by spectrophotometric analysis at 600 nm.

[3] = system: P. aeruginosa PA14; assay: Mouse burn and infection (BI) model, survival; format: in vivo, mice; settings: for final mice survival rate at 7 days post burn and infection: single IV injection at 6 hrs (100 μl 20 mM), control 10% (FIG. 24); for average survival after 5 days: IV tail vein 100 μl of 10 mM, four days prior to burn/infection, n=8-10, control 10% (FIG. 9)
Experimental: Burn wound infection in mice can be established by subcutaneous or topical administration of the bacteria to the sites of the burn. […] Six-week old CD-1 male mice were used.
To induce infection, the mice were placed under general anesthesia via intraperitonial injection of 40 mg/kg Pentobarbital, the ventral surface was shaved, and a central skin fold elevated was simultaneously compressed from both sides for 5 seconds using two 2×2 cm metal blocks preheated to 95-100° C., to produce a non-lethal 5-8% full thickness burn with negligible focal necrosis of the underlying muscle or damage to underlying visceral organs. IP saline was administered for fluid resuscitation for ≧5% total body surface burns: avoiding vital structures, saline was injected into the left lower quadrant of the abdominal area of the anesthetized animal post-burn. This burn procedure was followed by mid-eschar inoculation of 100 μL of bacterial suspension containing ˜5×10^5 CFU. The animals were returned to their cages and provided mouse chow and water ad libitum. Animals typically recover from the anesthesia within 20 minutes post-administration. Criteria used to evaluate anesthesia recovery are state of alertness, mobility, and reaction to surrounding stimuli. Mice were monitored twice a day for symptoms and deaths, with increased monitoring every 6-8 hours during the period of greatest potential for infection and clinical disease.
The mouse full-thickness skin thermal injury infection model was used to test if 2AA restricts P, aeruginosa virulence. This model is predictable and reproducible; clinically relevant; and can lead to MODS and mortality. Briefly, a ˜15% total burn surface area (TBSA) thermal scalding injury is produced on the abdominal skin, leaving the underlying muscle intact, and the inoculum is delivered into the scald eschar. […]

[4] = physchem; settings: saline or isotonic
[5] = system: pyocyanin production; assay: Pyocyanin production; format: cell-based, Pseudomonas aeruginosa
[6] = system: P. aeruginosa PA14; assay: PA14 systemic spread in BI mice (cfu in muscle and blood); format: in vivo
Experimental: Furthermore, 6-FABA, 6CABA, and 4CABA efficacy in limiting PA14 systemic spread was assessed by comparing burn mice infected with PA14 and then treated with the compounds at 6 hr BI with control untreated BI mice. For each experimental set of n=18, 6 mice were sacrificed at 24 hr, and bacteria numbers were determined in muscle tissue underlaying or adjacent to the […] site and in blood. The inoculation procedure used in the thermal injury model greatly limits the initial delivery of bacteria to blood and muscle, so bacteria in these tissues reflect post-infection systemic spread.
In an experiment to determine the whether 6-fluoro-2-aminobenzoic acid (6FABA) affects the systemic spread of P. aeruginosa cells in a mouse burn/infection model, the results of which are shown in FIGS. 28A and 28B, 15 mice were treated with 100 μL of a 20 mM solution of 6-FABA 6 hrs or 12 hours post-burn and infection, and the PA14 cfu/mg of tissue (i.e., in blood and in muscle adjacent to the burn and infection) was determined at 24 hours and 36 hours post-burn.

[7] = Toxicity of IV 6-FABA in burned mice; format: in vivo
Experimental: Initial experiments were aimed at defining an appropriate mouse administration protocol for 6-FABA, with regard to concentration, time of administration following infection, and inhibition of virulence. […] Accordingly, burn and PA14 infected (BI) mice were subsequently administered a single injection of 20 mM 6-FABA at 6 or 12 hr post BI; and double injections at 6 and 24 hr BI.

[8] = biological target: T1, PqsA (Pseudomonas aeruginosa, UniProt Q9I4X3); assay: Anthranilic acid accumulation and AA competition in PA14 cultures; format: cell-based; settings: for accumulation of anthranilic acid: PA14 culture with inhibitor vs control (FIG. 31); for effect of increasing concentrations of AA on inhibition of HAQ production: culture containing 1.5 mM inhibitor (FIG. 32)
T1 construct: endogenous in cells; host or cells: P. aeruginosa PA14 cultures
T1 sequence (Q9I4X3 whole entry): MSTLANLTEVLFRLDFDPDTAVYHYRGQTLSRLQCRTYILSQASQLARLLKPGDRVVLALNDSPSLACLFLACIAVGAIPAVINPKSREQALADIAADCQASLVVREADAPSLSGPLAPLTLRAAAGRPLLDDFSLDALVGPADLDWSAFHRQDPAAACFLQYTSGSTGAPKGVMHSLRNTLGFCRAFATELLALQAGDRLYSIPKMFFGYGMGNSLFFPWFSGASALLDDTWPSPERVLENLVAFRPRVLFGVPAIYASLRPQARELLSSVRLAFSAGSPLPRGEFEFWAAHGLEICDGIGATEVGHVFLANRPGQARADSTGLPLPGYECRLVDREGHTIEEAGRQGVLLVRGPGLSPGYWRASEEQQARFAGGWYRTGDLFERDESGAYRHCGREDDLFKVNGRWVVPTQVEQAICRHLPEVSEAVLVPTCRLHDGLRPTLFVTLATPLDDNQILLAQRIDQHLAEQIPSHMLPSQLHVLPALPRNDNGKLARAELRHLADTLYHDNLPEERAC
Text: In P. aeruginosa anthranilic acid is also produced by the enzymatic systems PhnAB or TrpEG. […] This accumulation could be due to inhibition of PqsA or of any enzyme downstream in the HAQ biosynthesis. […] This reversal could only be explained by a competitive inhibition of an enzyme acting on AA. Because pqsA is the only enzyme of the pqsA-E operon to present similarities with enzymes involved in the activation of aromatic acid group, like the one found in anthranilic acid, we conclude that these inhibitors act on PqsA in a competitive manner with its substrate AA.

[9] = biological target: T2, MvfR (Pseudomonas aeruginosa, UniProt Q9I4X0); assay: MvfR binding to radiolabeled pqsA promoter DNA fragment (gel shift); settings: 40 pM ligand, E. coli cell lysate containing MvfR (FIGS. 20A, 20B)
T2 construct: made in house; host or cells: E. coli (cell lysate, not purified)
T2 sequence (Q9I4X0 whole entry, the tested form may be a part): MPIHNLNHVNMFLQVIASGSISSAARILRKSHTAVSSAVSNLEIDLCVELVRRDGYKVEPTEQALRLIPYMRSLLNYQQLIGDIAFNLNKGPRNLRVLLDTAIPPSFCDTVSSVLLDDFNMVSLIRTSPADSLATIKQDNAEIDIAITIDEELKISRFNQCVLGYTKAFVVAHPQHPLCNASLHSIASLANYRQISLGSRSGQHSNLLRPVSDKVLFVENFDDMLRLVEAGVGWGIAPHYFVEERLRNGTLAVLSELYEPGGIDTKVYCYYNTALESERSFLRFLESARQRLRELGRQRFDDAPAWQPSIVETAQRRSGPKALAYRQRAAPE
Experimental: FIGS. 20A and 20B show binding of MvfR to the pqsA promoter. FIG. 20A is a gel showing that MvfR binds to the pqsA promoter in the absence of HHQ or PQS, but that binding is increased in the presence of HHQ or PQS. A ^32P-labeled 174-bp DNA fragment containing the pqsA promoter region was mixed with E. coli cell lysate containing MvfR minus ligand (lanes 2-3); plus 40 pM HHQ (lanes 4-5); or plus 40 pM PQS (lanes 6-7). Protein added per reaction: lane 1, 0 ng/μl; lanes 2, 4, and 6, 30 ng/μl; and lanes 3, 5, and 7, 60 ng/μl. HHQ and PQS were added at the final concentration of 40 pM. Reaction mixtures were electrophoresed on 5% non-denatured polyacrylamide gels. FIG. 20B is a graph showing the densitometry of shifted bands.
To determine if HHQ potentiates MvfR DNA-binding, a 174-bp radiolabeled pqsA promoter region DNA fragment containing the potential LysR-box sequence was mixed with E. coli cell lysate containing MvfR.

[10] = system: pqsA-LacZ (MvfR-dependent pqs operon transcription); assay: pqsA-LacZ expression (β-galactosidase activity); format: cell-based, Pseudomonas aeruginosa; settings: PA14 pqsH/pqsA double mutant, compound added at OD600 1.0 (FIG. 19)
Experimental: To assess the effect of this compound on bacteria, we analyzed the production of HAQs in the presence of 2AA using LC/MS. The bacteria were propagated in the presence of 3 mM 2AA, culture media was collected at different time points, and the HHQ, PQS and HQNO production was measured in the supernatant. […] Since 2AA addition to the P. aeruginosa culture inhibits the production of HHQ and PQS, we assessed the transcription from the pqs operon using a pqsA-LacZ fusion.
To further, understand the mechanism of inhibition of the pqs operon by 2AA, we carried out competition assays of PQS and HHQ with 2AA. The expression of pqsA-LacZ in pqsApqsH double mutants was assessed. Bacteria were grown to an OD600 of 1.0 and HHQ and PQS were added either alone or with 2AA. LacZ expression was assayed at different stages of the growth, using standard protocols.
To determine whether HHQ activates MvfR expression, we generated a PA14pqsH/pqsA double mutant that lacks all HAQ production, and assessed pqsA-lacZ activity in the absence and presence of HHQ and PQS.

[11] = 2 mM compound, followed over 26 hours at 600 nm (FIG. 4)

## COC(=O)c1ccccc1N [MA, methyl anthranilate, reference compound]
[1]
  PQS production: prevents PQS production
  levels of HAQs: reduces the levels of several HAQs
  production of N-oxides: production of N-oxides at very high concentrations
[2]; methylanthranilate (FIG. 25B)
  PA14 growth: inhibits PA14 growth

## CC(=O)c1cccc(O)c1N [2-amino-3 hydroxy acetophenone]
[3]; 10 mM solutions IV 4 days pre-BI (FIGS. 11A, 11B)
  protection (survival curves): decreased protective efficacy versus 2AA

## Nc1cccc(F)c1C(=O)O [6-FABA, 6-fluoro-2-aminobenzoic acid]
[1]
  HAQ production / HAQs synthesis: inhibited HAQ production; also recorded: completely halted
  inhibition of 4-hydroxy-2-alkylquinoline (HAQ) production: potent inhibitors; also recorded: potently inhibit
  production of the principal members of the three main HAQ families (HHQ, HQNO, PQS): dramatically decreased; also recorded: strongly inhibited
[3]; single IV injection 20 mM at 6 hr BI (FIG. 26)
  time course of mortality: delayed mortality
[3]; single IV injection 20 mM at 6 hr BI, control 10% (FIG. 26)
  survival: 40%
[3]; single IV injection 20 mM at 12 hr BI (FIG. 26)
  survival: up to 60%
[3]
  final mice survival rate at 7 days post burn and infection: ~35%
[4]
  solubility: 20 mM (≈ 3100 µg/mL)
[5]
  pyocyanin production: without abrogating pyocyanin production
[2]
  bacterial growth (PA14): without affecting bacterial growth
[6]; 100 μL of 20 mM 6-FABA post-burn and infection (FIG. 28A)
  systemic dissemination of P. aeruginosa (cfu/mg in muscle adjacent to burn): limits significantly the systemic dissemination
[6]; 100 μL of 20 mM 6-FABA, blood at 24 hrs (FIG. 28B)
  bacteria in blood: no bacteria are detected
[7]; second IV injection of 20 mM at 12 or 18 hr
  toxicity (deaths): a significant number of mice die
[7]; second IV injection of 20 mM at 24 hr
  mortality: 10%
[7]; single IV injection 100 μl 20 mM, 6 hrs post-burn
  toxicity: non-toxic
[8]
  accumulation of anthranilic acid: transient accumulation
  effect of increasing concentrations of AA on inhibition of HAQ production: reversed the inhibition

## Nc1ccc(F)cc1C(=O)O [5-FABA, 5-fluoro-2-aminobenzoic acid]
[1]
  HAQ production / HAQs synthesis: inhibited HAQ production
  inhibition of 4-hydroxy-2-alkylquinoline (HAQ) production: potent inhibitors

## CC(=O)c1ccccc1[N+](=O)[O-] [2NA, 2′-nitroacetophenone]
[3]
  average survival after 5 days: 50%
[2]; [11]
  Bacterial growth: only slightly retarded

## Nc1cc(F)ccc1C(=O)O [4-FABA, 4-fluoro-2-aminobenzoic acid]
[1]
  inhibition of 4-hydroxy-2-alkylquinoline (HAQ) production: potent inhibitors

## CC(=O)c1ccc(N)cc1 [4AA, 4′-aminoacetophenone]
[3]
  average survival after 5 days: 50%
[2]; [11]
  Bacterial growth: only slightly retarded

## CC(=O)c1cccc(N)c1 [3AA, 3′-aminoacetophenone]
[3]
  average survival after 5 days: 50%
[2]; [11]
  Bacterial growth: only slightly retarded

## Nc1cccc(Cl)c1C(=O)O [6-CABA, 6-chloro-2-aminobenzoic acid]
[1]
  HAQ production / HAQs synthesis: inhibited HAQ production; also recorded: completely halted
  inhibition of 4-hydroxy-2-alkylquinoline (HAQ) production: potent inhibitors
  production of the principal members of the three main HAQ families (HHQ, HQNO, PQS): dramatically decreased
[3]
  final mice survival rate at 7 days post burn and infection: ~40%
[5]
  pyocyanin production: without abrogating pyocyanin production
[2]
  bacterial growth (PA14): without affecting bacterial growth; also recorded: does not inhibit PA14 growth
[8]
  accumulation of anthranilic acid: transient accumulation
  effect of increasing concentrations of AA on inhibition of HAQ production: reversed the inhibition

## CCCCCCCc1cc(O)c2ccccc2n1 [HHQ, 4-hydroxy-2-heptylquinoline, reference compound]
[9]
  MvfR-pqsA promoter binding: potentiate MvfR-pqsA promoter binding, with weaker activity seen with HHQ versus PQS
[10]
  MvfR-dependent pqsA-lacZ activity: induce MvfR-dependent pqsA-lacZ activity

## Nc1cc(Cl)ccc1C(=O)O [4-CABA, 4-chloro-2-aminobenzoic acid]
[1]
  HAQ production / HAQs synthesis: completely halted
  inhibition of 4-hydroxy-2-alkylquinoline (HAQ) production: potent inhibitors
  production of the principal members of the three main HAQ families (HHQ, HQNO, PQS): dramatically decreased
[3]
  final mice survival rate at 7 days post burn and infection: ~50%
[5]
  pyocyanin production: without abrogating pyocyanin production
[2]; 1.5 mM compound, followed over 35 hours at 600 nm (FIG. 6)
  Bacterial growth: only slightly retarded
[2]
  bacterial growth (PA14): without affecting bacterial growth
[8]
  accumulation of anthranilic acid: transient accumulation

## CCCCCCCc1nc2ccccc2c(O)c1O [PQS, 3,4-dihydroxy-2-heptylquinoline, reference compound]
[9]
  MvfR-pqsA promoter binding: potentiate MvfR-pqsA promoter binding
[10]
  MvfR-dependent pqsA-lacZ activity: induce MvfR-dependent pqsA-lacZ activity
